For assay [1], the target named is Aldo-keto reductase family 1 member B1 (Homo sapiens, UniProt P15121). Briefly: Inhibitory activity against aldose reductase isolated from human placenta.
For assay [2], the system named is Rattus norvegicus. The experiment in a line: In vivo inhibition of sorbitol accumulation in sciatic nerve and lens of diabetic rat at a dose of 10 mg/kg. The class given is functional.
Assay [3] concerns Rattus norvegicus. Briefly: In vivo inhibition of sorbitol accumulation in sciatic nerve and lens of diabetic rat at a dose of 25 mg/kg. The class given is functional.
The subject of assay [4] is Rattus norvegicus. The experiment in a line: In vivo inhibition of sorbitol accumulation in sciatic nerve and lens of diabetic rat at a dose of 25 mg/kg; NS=not significant. Set-up: dose 25 mg/kg. The format is functional, organism-based.
Assay [5] relates to Rattus norvegicus. Briefly: In vivo inhibition of sorbitol accumulation in sciatic nerve and lens of diabetic rat at a dose of 10 mg/kg; NS=not significant. The format is functional, organism-based. Set-up: dose 10 mg/kg.
The subject of assay [6] is Rattus norvegicus. Briefly: In vivo inhibition of sorbitol accumulation in sciatic nerve and lens of diabetic rat at a dose of 100 mg/kg. The class given is functional.

Active and inactive are the calls of the source. The rule behind the calls is not given here.

We go through 29 compounds from ChEMBL document CHEMBL1126296, “Orally active aldose reductase inhibitors: indazoleacetic, oxopyridazineacetic, and oxopyridopyridazineacetic acid derivatives” (J Med Chem, 1992).

In general, IC50 refers to the point on the concentration scale where inhibition reaches its midpoint. The low end stands for inhibition by little substance, the high end for a need for much substance. In general, inhibition in vivo refers to the percentage by which the read-out fell short of the control. A high value points to a strong effect.

As for `Cc1c(CC(=O)O)nn(Cc2nc3cc(F)cc(F)c3s2)c(=O)c1C`, the half-maximal inhibitory concentration (IC50) in assay [1] was found to be 5 nM. In assay [2], this compound gave an inhibition in vivo at 10 mg/kg of 76%.
In assay [1], `O=C(O)Cc1nn(Cc2ccc(Br)cc2F)c(=O)c2c1CCCC2` displayed a half-maximal inhibitory concentration (IC50) of 32 nM. Moreover, in assay [3], the inhibition in vivo at 25 mg/kg came to 87%.
As for `O=C(O)Cc1nn(Cc2nc3cc(F)cc(F)c3s2)c2ccccc12`, the concentration for half-maximal inhibition (IC50) in assay [1] was 30 nM. Moreover, the inhibition in vivo at 25 mg/kg in assay [3] turned out to be 61%.
In the case of `O=C(O)Cc1nn(Cc2ccc(Br)cc2F)c2ccccc12`, the 50% inhibitory concentration (IC50) in assay [1] is 6200 nM.
Compound `Cc1c(CC(=O)O)nn(Cc2nc(-c3cccc(F)c3F)no2)c(=O)c1C` came in with an IC50 in assay [1] of 3.3 nM. In addition, the inhibition in vivo at 10 mg/kg in assay [2] stood at 26%.
`O=C(O)Cc1nn(Cc2nc3cc(Br)ccc3s2)c2ccc(Cl)cc12` gave an IC50 in assay [1] of 65 nM. The same compound displayed an inhibition in vivo at 25 mg/kg in assay [3] of 56%.
Regarding `O=C(O)Cc1nn(Cc2nc3cc(C(F)(F)F)ccc3s2)c(=O)c2c1CCCC2`, the half-inhibitory concentration (IC50) in assay [1] came out at 5.2 nM. Also, the inhibition in vivo at 25 mg/kg in assay [3] stood at 89%. The compound also registered an inhibition in vivo at 10 mg/kg in assay [2] of 61%.
In assay [1], `O=C(O)Cc1nn(Cc2ccc(Br)cc2F)c(=O)c2ncccc12` registered a half-inhibitory concentration (IC50) of 760 nM. Besides, the inhibition entry in assay [4] is “inactive”.
In turn, `O=C(O)Cc1nn(Cc2nc3ccccc3s2)c(=O)c2ccccc12` gave an inhibition in vivo at 25 mg/kg in assay [3] of 67%.
In the case of `Cc1c(CC(=O)O)nn(Cc2ccc(Br)cc2F)c(=O)c1C`, the IC50 in assay [1] is 290 nM. Besides, the inhibition entry in assay [5] is “inactive”.
Regarding `O=C(O)Cc1nn(Cc2nc3cc(C(F)(F)F)ccc3s2)c2ccc(Cl)cc12`, inhibition in assay [1] was half-maximal at 35 nM (IC50). For the same compound, in assay [4], the inhibition result is “inactive”.
The like results for `Cc1cc(=O)n(Cc2nc3cc(C(F)(F)F)ccc3s2)nc1CC(=O)O` were, in that order, 18 nM and “inactive”.
The compound `O=C(O)Cc1nn(Cc2ccc(Br)cc2F)c(=O)c2cc3ccccc3cc12` returned an IC50 in assay [1] of 420 nM.
In turn, `O=C(O)Cc1nn(Cc2nc3cc(C(F)(F)F)ccc3s2)c(=O)c2ccccc12` [ZOPOLRESTAT] yielded an inhibition in vivo at 10 mg/kg in assay [2] of 80%.
In assay [1], `O=C(O)Cc1nn(Cc2nc3cc(F)ccc3s2)c(=O)c2cccnc12` gave an IC50 of less than 10 nM. In addition, the inhibition in vivo at 25 mg/kg in assay [3] came out at 64%.
As to `O=C(O)Cc1nn(Cc2nc3ccccc3s2)c(=O)c2cc3ccccc3cc12`, half-maximal inhibition in assay [1] (IC50) required 46 nM. In assay [6], this compound showed an inhibition in vivo at 100 mg/kg of 48%.
In assay [1], `O=C(O)Cc1nn(Cc2nc3cc(C(F)(F)F)ccc3s2)c2ccccc12` yielded an IC50 of 33 nM. Moreover, the inhibition in vivo at 25 mg/kg in assay [3] is 59%.
For the compound `O=C(O)Cc1ccc(=O)n(Cc2nc3cc(F)cc(F)c3s2)n1`, in assay [1], the half-maximal inhibitory concentration (IC50) was less than 10 nM. Further, at 25 mg/kg the inhibition in vivo in assay [3] was 32%.
Take `O=C(O)Cc1nn(Cc2nc3cc(F)cc(F)c3s2)c(=O)c2c1CCCC2`: the IC50 in assay [1] was 4 nM.
In assay [1], `O=C(O)Cc1nn(Cc2nc3ccccc3o2)c2ccc(Cl)cc12` displayed an IC50 of 100 nM.
`O=C(O)Cc1nn(Cc2nc3ccccc3s2)c2ccccc12`: in assay [1], half-maximal inhibition (IC50) was put at 680 nM. The compound further had an inhibition in vivo at 25 mg/kg in assay [3] of 52%. In assay [6], this compound registered an inhibition in vivo at 100 mg/kg of 77%.
In assay [1], `O=C(O)Cc1nn(Cc2nc3cc(F)cc(F)c3s2)c2ccc(Cl)cc12` gave a concentration for half-maximal inhibition (IC50) of 110 nM. The same compound came in with an inhibition in vivo at 25 mg/kg in assay [3] of 69%.
`O=C(O)Cc1nn(Cc2nc3cc(C(F)(F)F)ccc3s2)c(=O)c2ncccc12` yielded an IC50 in assay [1] of 2.1 nM. Also, the inhibition entry in assay [5] is “inactive”.
Turning to `O=C(O)Cc1ccc(=O)n(Cc2nc3cc(C(F)(F)F)ccc3s2)n1`, half-maximal inhibition in assay [1] (IC50) required 340 nM. Moreover, the inhibition entry in assay [4] was “inactive”.
Regarding `O=C(O)Cc1nn(Cc2nc3cc(F)cc(F)c3s2)c(=O)c2cccnc12`, half-maximal inhibition in assay [1] (IC50) required 26 nM. In assay [3], the inhibition in vivo at 25 mg/kg came to 68%.
Consider `O=C(O)Cc1nn(Cc2nc3cc(C(F)(F)F)ccc3s2)c(=O)c2cccnc12`, for which the IC50 in assay [1] was 41 nM. Moreover, in assay [3], at 25 mg/kg the inhibition in vivo was 74%.
`O=C(O)Cc1nn(Cc2nc3ccccc3s2)c2ccc(Cl)cc12` returned an IC50 in assay [1] of 58 nM. Moreover, the inhibition result in assay [5] is “inactive”.
In the case of `Cc1c(CC(=O)O)nn(Cc2nc3cc(C(F)(F)F)ccc3s2)c(=O)c1C`, the IC50 in assay [1] was determined as 16 nM. The compound further gave an inhibition in vivo at 25 mg/kg in assay [3] of 81%.
For `O=C(O)Cc1nn(Cc2nc3cc(F)ccc3s2)c2ccc(Cl)cc12`, the IC50 in assay [1] came out at 4.6 nM. Also, the inhibition in vivo at 25 mg/kg in assay [3] is 34%.
